The text below walks through data of patent US20250161279A1, “METHODS OF TREATING MULTIPLE MYELOMA USING BCL-2 INHIBITOR” (BeiGene Switzerland GmbH, priority 2022, published 2025).

“And” between values parts separate entries of the source, which are not always exact repeats. Equal entries are not always repeated.

The test system of series [1] is KMS-12-PE human MM subcutaneous xenograft model. Kind of series: KMS-12-PE xenograft model study: tumor growth. The settings on record: for Tumor Volume (mm^3) (Mean ± SEM) Day 17: 17 days. The format is in vivo, NCG mice. How it is done: KMS-12-PE, a human MM cell line, was obtained from Deutsche Sammlung von Mikroorganismen und Zellkulturen (DSMZ, Catalog: ACC 606). KMS-12-PE cells were cultured in RPMI 1640 complete medium, supplemented with 20% (v/v) fetal bovine serum, and 100 μg/mL of penicillin and streptomycin. In this study, cells were used within 10 passages of recovery from liquid nitrogen. KMS-12-PE cells were maintained as suspension cultures at 37° C. in a 5% CO2 atmosphere, being passaged twice weekly. […] Resuspended cells were placed on ice prior to inoculation. The right front flank of each mouse was cleaned with 75% ethanol prior to cell inoculation. Each animal was injected subcutaneously with 3×10^7 cells in 200 μL of cells suspension in the right front flank via a 1 mL LS 25GA syringe. […] Body weight was assessed immediately before dosing and volume dosed was adjusted accordingly. Tumor volume was measured twice weekly in two dimensions using a caliper (measurable since day 4 post treatment in this study). Body weights were recorded twice weekly. One individual was responsible for tumor measurement for the duration of the study. Mice were also monitored daily for clinical signs of toxicity. Mice were euthanized using carbon dioxide at the end of the study. The two-dimension diameters of tumor were determined using a caliper. Tumor volume was calculated using the formula: […] Tumor growth inhibition (TGI) was calculated using the following formula: […] Where, treated t=treated tumor volume at time t, treated t0=treated tumor volume at time 0, vehicle t=vehicle tumor volume at time t, vehicle t0=vehicle tumor volume at time 0. The tumor volume on day 17 post treatment was analyzed using ANOVA method on logarithmic scale in SAS Enterprise Guide version: 7.15 HF3. The following comparisons were made among treatment groups, […] The combination therapy was compared to corresponding single agents. […] The EOHSA tests were adjusted by Holm's multiple comparison test. #p<0.05, ####p<0.0001.

Series [2] has as its system patients with R/R MM harboring t (11;14). The format is in vivo, human. As to conditions: 19 patients, 80, 160, 320 and 640 mg QD with dexamethasone, preliminary.
A short description of series [3]: PK analysis of Compound 1 in KMS-12-PE xenograft mice (plasma, day 14). It is filed as in vivo, NCG mice. As to conditions: for AUC0-24 h of Compound 1, Day 14 / Cmax of Compound 1, Day 14: plasma; for Individual animal's plasma concentration of Compound 1, 0 h post treatment / Individual animal's plasma concentration of Compound 1, 0.5 h post treatment / Individual animal's plasma concentration of Compound 1, 2 h post treatment / Individual animal's plasma concentration of Compound 1, 8 h post treatment / Individual animal's plasma concentration of Compound 1, 24 h post treatment: day 14, steady state. How it is done:
On day 14 post treatment, blood samples (about 100 μL per mouse) were collected from the retro-orbital sinus under isoflurane/oxygen anesthesia at predose 0, 0.5, 2, 8, and 24 hours after dosing of Compound 1 (3 mice per time point, every mouse was used for 2 or 3 time points). The blood was transferred to the EDTA-K2 anticoagulation tube, and the plasma was collected by centrifugation at 5,600 rpm for 7 min and was kept frozen in −80° C. until analysis.
For PK analysis, maximum plasma concentration (Cmax) and time to peak (Tmax) were got directly from the plasma concentration versus time graphs. The area under the plasma concentration-time curve (AUC) from time 0 to 24 hours post-dose (AUC0-24h) was calculated.

Series [4] is described as follows: Clinical study, PK of Compound 1 in combination with dexamethasone. As to conditions: MM patients, 80 to 640 mg target doses. It is filed as in vivo, human. How it is done: A dose escalation study is conducted to evaluate the safety and tolerability of Compound 1 in combination with dexamethasone and dexamethasone plus carfilzomib in patients with relapsed/refractory (R/R) multiple myeloma (MM) and t (11;14). Also, the corresponding maximum tolerated dose (MTD)/maximum assessed dose (MAD), recommended Phase 2 dose (RP2D) and pharmacokinetics for Compound 1 in the combination therapies are to be observed.
Compound 1 plus dexamethasone: Patients with R/R MM and t (11;14) receive increasing doses of Compound 1 once daily with starting dose at 80 mg once daily, plus 40 mg of dexamethasone once weekly to determine the safety, tolerability, efficacy, and pharmacokinetics (PK). Upon completion of the dose-limiting toxicity (DLT) window (21 days) and depending on the number of evaluable patients and observed DLTs, the dose of Compound 1 may be de-escalated to 40 mg once daily, stay at 80 mg once daily, or be escalated to 160 mg once daily. Upon dose escalation to 160 mg once daily and provided there are no DLTs observed during the DLT window, the study may be conducted to escalate to a few higher dose levels (up to 640 mg once daily), or to insert some certain intermediate doses between 80 mg and 160 mg once daily.

[5] abbreviates: Dexamethasone 0.1 mg/kg p.o. QD.
The mark [6] stands for this setting: Compound 1 1.5 mg/kg + Dexamethasone 0.1 mg/kg p.o. QD.
The mark [7] stands for this setting: Compound 1 1.5 mg/kg + Dexamethasone 0.1 mg/kg.
Setting [8] is: Compound 1 1.5 mg/kg + Dexamethasone 1 mg/kg p.o. QD.
The mark [9] stands for this setting: Compound 1 1.5 mg/kg + Dexamethasone 1 mg/kg.
Setting [10] is: Compound 1 1.5 mg/kg p.o. QD, single agent.
[11] abbreviates: Compound 1 1.5 mg/kg p.o. QD, 1.5 mg/kg.

`C[C@@H]1C[C@H]2[C@@H]3CCC4=CC(=O)C=C[C@]4(C)[C@@]3(F)[C@@H](O)C[C@]2(C)[C@@]1(O)C(=O)CO` [Dexamethasone]: in series [1] (setting [5]), the “TGI (%) Day 17” value is 9% and the “Tumor Volume (mm^3) (Mean ± SEM) Day 17” value was 1036.5 ± 88.8 mm^3. Further, in series [1] (Dexamethasone 1 mg/kg p.o. QD), the “TGI (%) Day 17” value was determined as 46% and the “Tumor Volume (mm^3) (Mean ± SEM) Day 17” value is given as 696.0 ± 69.2 mm^3.
Take `CC(C)c1ccccc1[C@@H]1CCCN1C1CC2(CCN(c3ccc(C(=O)NS(=O)(=O)c4ccc(NCC5CCC(C)(O)CC5)c([N+](=O)[O-])c4)c(Oc4cnc5[nH]ccc5c4)c3)CC2)C1` (stereo partly drawn) [Compound 1, 2-((1H-pyrrolo[2,3-b]pyridin-5-yl)oxy)-N-((4-((((1r,4r)-4-hydroxy-4-methylcyclohexyl)methyl)amino)-3-nitrophenyl)sulfonyl)-4-(2-((S)-2-(2-isopropylphenyl)pyrrolidin-1-yl)-7-azaspiro[3.5]nonan-7-yl)benzamide]: in series [2], the “clinical activity / disease control” value was “demonstrated activity at tested dose levels, and most patients achieved disease control”. Further, in series [3] (setting [6]), the “AUC0-24 h of Compound 1, Day 14” value is 107 ng·h/mL and the “Cmax of Compound 1, Day 14” value is 29.5 ng/mL. Further, in series [3] (setting [7]), the “Individual animal's plasma concentration of Compound 1, 0 h post treatment” value was “BLOQ”; the “Individual animal's plasma concentration of Compound 1, 0.5 h post treatment” value is 4.02 ng/mL and 5.2 ng/mL and 3.67 ng/mL; the “Individual animal's plasma concentration of Compound 1, 2 h post treatment” value was 36.7 ng/mL and 30.9 ng/mL and 20.8 ng/mL; the “Individual animal's plasma concentration of Compound 1, 8 h post treatment” value is 3.18 ng/mL and 6.95 ng/mL and 3.59 ng/mL. In addition, the “Individual animal's plasma concentration of Compound 1, 24 h post treatment” value in series [3] (setting [7]) is “BLOQ”. Further, in series [3] (setting [8]), the “AUC0-24 h of Compound 1, Day 14” value worked out at 179 ng·h/mL and the “Cmax of Compound 1, Day 14” value was found to be 42.4 ng/mL. In addition, in series [3] (setting [9]), the “Individual animal's plasma concentration of Compound 1, 0 h post treatment” value is “BLOQ”; the “Individual animal's plasma concentration of Compound 1, 0.5 h post treatment” value was 14.4 ng/mL and 6.94 ng/mL and 9.04 ng/mL; the “Individual animal's plasma concentration of Compound 1, 2 h post treatment” value was 54.9 ng/mL and 35.8 ng/mL and 36.4 ng/mL; the “Individual animal's plasma concentration of Compound 1, 8 h post treatment” value was 5.15 ng/mL and 7.02 ng/mL and 5.05 ng/mL. Also, the “Individual animal's plasma concentration of Compound 1, 24 h post treatment” value in series [3] (setting [9]) is “BLOQ (2×) and 0.692 ng/mL”. Also, in series [3] (setting [10]), the “AUC0-24 h of Compound 1, Day 14” value was found to be 200 ng·h/mL and the “Cmax of Compound 1, Day 14” value is reported as 55.8 ng/mL. Besides, in series [3] (Compound 1 1.5 mg/kg p.o. QD, with or without dexamethasone), the “exposure (AUC0-24h and Cmax) at steady state, single treatment group versus combo treatment” value was “consistent with that in combo treatment”. For the same molecule, in series [3] (Compound 1 1.5 mg/kg p.o. QD), the “Individual animal's plasma concentration of Compound 1, 24 h post treatment” value is reported as “BLOQ”. Besides, in series [3] (setting [11]), the “Individual animal's plasma concentration of Compound 1, 0 h post treatment” value is 1.09 ng/mL and BLOQ (2×); the “Individual animal's plasma concentration of Compound 1, 0.5 h post treatment” value is 8 ng/mL and 5.72 ng/mL and 9.29 ng/mL; the “Individual animal's plasma concentration of Compound 1, 2 h post treatment” value was 62.8 ng/mL and 40.7 ng/mL and 63.9 ng/mL; the “Individual animal's plasma concentration of Compound 1, 8 h post treatment” value was 9.97 ng/mL and 9.73 ng/mL and 5.81 ng/mL. Further, in series [1] (Compound 1 1.5 mg/kg p.o. QD), the “TGI (%) Day 17” value is on record as 11% and the “Tumor Volume (mm^3) (Mean ± SEM) Day 17” value came to 1011.7 ± 103.8 mm^3. The “drug-drug-interaction (DDI) potential between dexamethasone and Compound 1” value in series [4] is “low”.
